Measurements as given in patent US8906953B2, “Pyrrolidine substitute flavones for the treatment of inflammatory disorders” (Piramal Enterprises Limited, priority 2010, dated 2014).

Legend:
E-selectin = test: TNF-α induced cell surface expression of E-selectin on HUVECs; format: cell-based; details: Homo sapiens, HUVEC; TNF-α (1 ng/mL) stimulated HUVECs, 6 hours, n=2
Procedure: (§1) The assay was designed as in reference, Transplantation, 1997, 63(5), 759-764, the disclosure of which is incorporated herein by reference for the teaching of the assay.
(§2) Human umbilical vein endothelial cells (HUVECs) were obtained from Cascade Biologics (Oregon-USA). Cells were cultured in M-200 medium (Cascade Biologics) supplemented with low serum growth supplements (LSGS) (Cascade Biologics), penicillin-G (100 U/mL), streptomycin (100 μg/mL) and amphotericin B (50 ng/mL) (GIBCO). […] After TNF-α stimulation (1 ng/mL) (R&D Systems (Minneapolis, Minn.)) for 4 hours at 37° C. in an atmosphere of 5% CO2, supernatants were harvested and assayed for the expression of ICAM-1 (intercellular cell adhesion molecules), whereas the expressions of VCAM-1 (vascular cell adhesion molecules) and E-selectin were evaluated after 6 hours of stimulation. […] To quantitatively measure the amount of cell surface expressions of ICAM-1, VCAM-1 and E-selectin, ELISA assay was performed using anti-ICAM-1 (clone BBIG-I1), anti-VCAM-1 (clone BBIG-V1), anti-E-selectin (clone BBIG-E4) antibodies, isotype control mouse IgG1 (clone 11711.11) and the secondary antibody (anti-mouse IgG-HRP antibody) which were procured from R&D Systems (Minneapolis, Minn., USA). […]

PDE4 = PDE4 inhibition, cAMP fluorescence assay in salbutamol-stimulated U937 cells; format: cell-based, human; details: for Relative Fluorescence (RF): U937 cells, salbutamol 1 μM
Procedure: Culture medium was changed every 2-3 days and always 24 hours before harvest. RPMI medium, FBS and Salbutamol were purchased from Sigma-Aldrich (USA). Rolipram was synthesized in the Medicinal Chemistry Department, Piramal Life Sciences Limited.
Rolipram was used as a standard (0.3, 1 and 3 μM). […] Fluorescence measurements were taken with Polarstar Optima (BMG Labtech-Germany).
Relative fluorescence was calculated using the following formula where: RF=Relative Fluorescence, Fo=fluorescent intensity of the blank or buffer control, F=fluorescence of cAMP or sample: RF=(Fo−F)/Fo
A standard curve was plotted using the RF values of the given standards and the values of cAMP corresponding to the test compounds were determined using the standard plot.

VCAM-1 = test: TNF-α induced cell surface expression of VCAM-1 on HUVECs; format: cell-based; details: Homo sapiens, HUVEC; TNF-α (1 ng/mL) stimulated HUVECs, 6 hours, n=2
Procedure: as §1, §2

ICAM-1 = test: TNF-α induced cell surface expression of ICAM-1 on HUVECs; format: cell-based; details: Homo sapiens, HUVEC; TNF-α (1 ng/mL) stimulated HUVECs, 4 hours, n=2
Procedure: as §1, §2

p38 MAP kinase = target: T1, p38 MAP kinase (Homo sapiens, UniProt Q16539); test: p38 MAP kinase inhibition, western blot in anisomycin-stimulated Jurkat cells; format: cell-based; details: 0.1 μM, anisomycin 10 μg/mL 30 minutes
T1 construct: endogenous in cells; host or cells: Jurkat T-cells (ATCC)
Procedure: The method for identifying inhibitors of p38 mitogen-activated protein (MAP) Kinase was designed as in reference, Journal of Lipid Research, 1999, 40, 1911-1919, the disclosure of which is incorporated herein by reference for the teaching of the assay.
Human Jurkat T-cells from American Type Culture Collection (ATCC) were cultivated in Rosewell Park Memorial Institute (RPMI) medium supplemented with 10% fetal bovine serum (FBS), penicillin (100 U/mL) and streptomycin (100 μg/mL) at 37° C. in humidified atmosphere of 95% air-5% CO2. Culture medium was changed every 2-3 days and always 24 hours before harvest. RPMI medium, FBS, CellLytic, anti-β-actin, sodium orthovanadate and anisomycin were purchased from Sigma-Aldrich (USA). TNF-α was purchased from R & D Systems (USA). Complete Protease inhibitor cocktail was procured from Roche.
Jurkat cells were preincubated with vehicle or the compound of example 3 (0.1 μM) for 1 hour in a 37° C., CO2 incubator. For MAPK experiments, the cells were stimulated with anisomycin (10 μg/mL) for 30 minutes. SB 203580 was used as a standard (1 μM). […] Aliquots of the resulting extracts were analyzed for their protein content using the Coomassie Plus Protein Assay Reagent (Pierce) following manufacturer's instructions. […]

T1 sequence (Q16539 whole entry): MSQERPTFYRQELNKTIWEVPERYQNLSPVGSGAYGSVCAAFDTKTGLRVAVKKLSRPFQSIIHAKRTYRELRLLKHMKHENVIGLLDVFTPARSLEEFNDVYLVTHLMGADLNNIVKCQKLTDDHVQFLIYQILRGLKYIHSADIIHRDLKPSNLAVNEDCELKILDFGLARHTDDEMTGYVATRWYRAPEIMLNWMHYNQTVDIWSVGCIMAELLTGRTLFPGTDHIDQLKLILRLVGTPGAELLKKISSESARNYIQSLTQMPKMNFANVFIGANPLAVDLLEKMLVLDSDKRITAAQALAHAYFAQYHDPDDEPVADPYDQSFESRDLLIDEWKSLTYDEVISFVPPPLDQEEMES

SMILES: CN1CC[C@@H](c2c(O)cc(O)c3c(=O)cc(-c4ccc(C(F)(F)F)cc4Cl)oc23)[C@@H]1CO.Cl [Compound of example 3, (+)-trans-2-(2-Chloro-4-trifluoromethyl-phenyl)-5,7-dihydroxy-8-(2-hydroxymethyl-1-methyl-pyrrolidin-3-yl)-chromen-4-one hydrochloride]
- IC50 (E-selectin): 0.65 µM
- PDE4 inhibition (conclusion) (PDE4; U937 cells, 1, 3 and 10 μM): not a PDE4 inhibitor
- Relative Fluorescence (RF) (PDE4; concentration 1 μM): 0.71
- Relative Fluorescence (RF) (PDE4; concentration 3 μM): 0.95
- Relative Fluorescence (RF) (PDE4; concentration 10 μM): 0.95
- IC50 (VCAM-1): 0.28 µM
- IC50 (ICAM-1): 0.67 µM
- p38 MAP kinase inhibition (western blot) (p38 MAP kinase): not an inhibitor of p38 MAP kinase
